The source of these data is patent US8791131B2, “Imidazo[1,5]naphthyridine compounds, their pharmaceutical use and compositions” (Pfizer Inc., priority 2008, dated 2014).

Molecules are shown by their SMILES. Where two headings read alike, the source gives them in different places.

One test concerns the target mTOR (Homo sapiens (Human), UniProt P42345). Description: biochemical.
Test [1] deals with PI3-K (phosphorylation of AKT at serine 473) in BT20 cells. Put plainly: PI3-Kα cellular assay (phospho-AKT Ser473 ELISA in BT20 cells).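 Note: lysates read by ELISA with TMB colour at 450 nm, cells given 0.5% DMSO vehicle serve as positive control and cell-free wells as negative control, duplicate wells per concentration.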 As to conditions: Homo sapiens, BT-20, 1 h. In general terms: ELISA stands for enzyme-linked immunosorbent assay.
The target in a further test is PI3-Kα (Mus musculus (Mouse), UniProt P42337). Description: PI3-Kα biochemical assay (in vitro kinase assay, fluorescence polarization).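 Note: Insect-cell-expressed mouse p110/p85 complex converting PI(4,5)P2, product PI(3,4,5)P3 detected by displacing TAMRA-tagged PI(3,4,5)P3 from Grip1 PH domain, lower polarization means more product, room temperature.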 As to conditions: read-out: PI3Ka Ki. (In fluorescence polarisation assays a small probe gives low polarisation when free and higher when bound to something large.)
PI3-Kα, sequence (P42337 whole entry, the tested form may be a part): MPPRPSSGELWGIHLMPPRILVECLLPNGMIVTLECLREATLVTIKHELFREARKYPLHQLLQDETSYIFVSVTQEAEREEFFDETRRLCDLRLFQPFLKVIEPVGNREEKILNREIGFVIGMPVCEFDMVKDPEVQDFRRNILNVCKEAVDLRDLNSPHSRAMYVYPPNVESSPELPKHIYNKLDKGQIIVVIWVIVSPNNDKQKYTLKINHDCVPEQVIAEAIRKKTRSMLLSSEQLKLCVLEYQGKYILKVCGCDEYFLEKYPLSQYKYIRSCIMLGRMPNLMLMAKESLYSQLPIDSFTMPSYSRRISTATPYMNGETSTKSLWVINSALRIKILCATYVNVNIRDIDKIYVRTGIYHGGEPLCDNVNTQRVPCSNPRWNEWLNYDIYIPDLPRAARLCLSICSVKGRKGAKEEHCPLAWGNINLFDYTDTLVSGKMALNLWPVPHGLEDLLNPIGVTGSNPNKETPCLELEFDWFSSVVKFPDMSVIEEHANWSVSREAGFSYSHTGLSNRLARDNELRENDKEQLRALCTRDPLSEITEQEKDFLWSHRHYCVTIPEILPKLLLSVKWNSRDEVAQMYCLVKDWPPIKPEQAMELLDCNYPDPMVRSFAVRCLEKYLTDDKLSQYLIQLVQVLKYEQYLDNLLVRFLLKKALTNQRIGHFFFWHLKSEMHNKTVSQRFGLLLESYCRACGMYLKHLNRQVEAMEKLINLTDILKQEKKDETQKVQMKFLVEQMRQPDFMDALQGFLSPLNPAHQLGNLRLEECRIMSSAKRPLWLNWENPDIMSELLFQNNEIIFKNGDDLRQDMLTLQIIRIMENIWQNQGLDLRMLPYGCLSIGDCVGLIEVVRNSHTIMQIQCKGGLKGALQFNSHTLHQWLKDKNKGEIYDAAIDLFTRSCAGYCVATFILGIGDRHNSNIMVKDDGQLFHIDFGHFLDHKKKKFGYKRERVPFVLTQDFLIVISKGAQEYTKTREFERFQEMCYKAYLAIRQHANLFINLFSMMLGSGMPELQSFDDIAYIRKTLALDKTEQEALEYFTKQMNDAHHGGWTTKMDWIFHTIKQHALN
PI3-Kα, sequence (P26450 whole entry partner, the tested form may be a part): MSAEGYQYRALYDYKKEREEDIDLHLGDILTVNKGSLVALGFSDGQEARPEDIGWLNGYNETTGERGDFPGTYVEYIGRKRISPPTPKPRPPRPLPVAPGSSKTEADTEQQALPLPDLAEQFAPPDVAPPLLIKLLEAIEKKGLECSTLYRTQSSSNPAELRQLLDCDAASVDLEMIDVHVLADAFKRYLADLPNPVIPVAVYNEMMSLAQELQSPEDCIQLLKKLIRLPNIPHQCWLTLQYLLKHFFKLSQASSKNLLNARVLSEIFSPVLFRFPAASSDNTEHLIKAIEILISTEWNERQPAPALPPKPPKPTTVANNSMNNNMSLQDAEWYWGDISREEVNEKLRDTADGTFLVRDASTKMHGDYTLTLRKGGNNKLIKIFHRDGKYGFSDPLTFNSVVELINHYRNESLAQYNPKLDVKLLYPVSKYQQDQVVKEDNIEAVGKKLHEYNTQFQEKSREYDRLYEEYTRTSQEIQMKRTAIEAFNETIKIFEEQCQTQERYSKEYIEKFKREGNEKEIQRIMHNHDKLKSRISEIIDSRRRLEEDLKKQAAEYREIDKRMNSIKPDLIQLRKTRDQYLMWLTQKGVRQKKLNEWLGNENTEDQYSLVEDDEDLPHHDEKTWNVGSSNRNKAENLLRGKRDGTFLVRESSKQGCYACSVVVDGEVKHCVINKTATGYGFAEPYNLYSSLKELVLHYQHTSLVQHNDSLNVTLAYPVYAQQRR
[2] abbreviates: read-out: S473 pAKT 10% FBS IC50 (μM).
The mark [3] stands for this setting: read-out: S473 pAKT 0.5% FBS IC50 (μM).

mTOR, sequence (P42345 2156-2469): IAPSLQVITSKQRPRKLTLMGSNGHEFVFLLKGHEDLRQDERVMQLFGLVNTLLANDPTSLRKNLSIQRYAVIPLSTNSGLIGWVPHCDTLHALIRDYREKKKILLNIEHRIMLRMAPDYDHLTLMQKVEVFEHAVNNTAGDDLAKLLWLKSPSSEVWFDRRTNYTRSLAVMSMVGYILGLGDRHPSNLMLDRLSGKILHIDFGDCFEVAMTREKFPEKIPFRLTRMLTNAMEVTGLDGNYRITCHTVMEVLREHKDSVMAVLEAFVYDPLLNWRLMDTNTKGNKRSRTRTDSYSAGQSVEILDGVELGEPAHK

By Ki is commonly meant a dissociation constant, usually derived from enzyme kinetics or from competition with a known ligand. Broadly, the IC50 is the midpoint of a concentration-inhibition curve. In the case of `CNC(=O)N1CCC(n2c(=O)n(C)c3cnc4ccc(-c5cnc(OC)nc5)nc4c32)CC1` [Compound 186, 4-[8-(2-methoxypyrimidin-5-yl)-3-methyl-2-oxo-2,3-dihydro-1H-imidazo[4,5-c][1,5]naphthyridin-1-yl]-N-methylpiperidine-1-carboxamide], the figures for the Ki at mTOR and on PI3-Kα were 0.00306 µM and 0.00249 µM, respectively. Also, the IC50 in test [1] (setting [2]) stood at 0.0681 µM.
`COc1ncc(-c2ccc3ncc4c(c3n2)n(C2CCN(C(=O)CO)CC2)c(=O)n4C)cn1` [Compound 189, 1-(1-glycoloylpiperidin-4-yl)-8-(2-methoxypyrimidin-5-yl)-3-methyl-1,3-dihydro-2H-imidazo[4,5-c][1,5]naphthyridin-2-one]: the inhibition constant Ki on mTOR is 0.00195 µM; at PI3-Kα, 0.00178 µM. In addition, in test [1] (setting [2]), the IC50 was 0.0272 µM.
In the case of `COc1ncc(-c2ccc3ncc4c(c3n2)n(C2CCN(CC(N)=O)CC2)c(=O)n4C)cn1` [Compound 190, 2-{4-[8-(2-methoxypyrimidin-5-yl)-3-methyl-2-oxo-2,3-dihydro-1H-imidazo[4,5-c][1,5]naphthyridin-1-yl]piperidin-1-yl}acetamide], the Ki at mTOR came out at 0.00976 µM; at PI3-Kα it was 0.00496 µM. Further, in test [1] (setting [2]), the IC50 came to 0.0903 µM.
For `CN[C@H]1CC[C@H](n2c(=O)n(C)c3cnc4ccc(-c5cnc6ccccc6c5)nc4c32)CC1` [Compound 193, 3-methyl-1-[trans-4-(methylamino)cyclohexyl]-8-quinolin-3-yl-1,3-dihydro-2H-imidazo[4,5-c][1,5]naphthyridin-2-one], the inhibition constant Ki on mTOR is 0.0131 µM; on PI3-Kα it was 0.00161 µM. In test [1] (setting [3]), the IC50 was determined as 0.0404 µM.
As to `Cn1c(=O)n([C@H]2CC[C@H](N)CC2)c2c3nc(-c4cnc5ccccc5c4)ccc3ncc21` [Compound 194, 1-(trans-4-aminocyclohexyl)-3-methyl-8-quinolin-3-yl-1,3-dihydro-2H-imidazo[4,5-c][1,5]naphthyridin-2-one], the Ki on mTOR came to 0.00791 µM; on PI3-Kα it was 0.0023 µM. Moreover, the IC50 in test [1] (setting [3]) turned out to be 0.0464 µM.
As to `CN(C)C(=O)CN1CCC(n2c(=O)n(C)c3cnc4ccc(-c5cnn(C)c5)nc4c32)CC1` [Compound 212, N,N-dimethyl-2-{4-[3-methyl-8-(1-methyl-1H-pyrazol-4-yl)-2-oxo-2,3-dihydro-1H-imidazo[4,5-c][1,5]naphthyridin-1-yl]piperidin-1-yl}acetamide], the inhibition constant Ki on mTOR was 0.0279 µM; at PI3-Kα, 0.0147 µM. Also, the IC50 in test [1] (setting [2]) is 0.248 µM.
Take `CC(=O)N1CCC(n2c(=O)n(C)c3cnc4ccc(-c5cccc6ncccc56)nc4c32)CC1` [Compound 249, 1-(1-acetylpiperidin-4-yl)-3-methyl-8-quinolin-5-yl-1,3-dihydro-2H-imidazo[4,5-c][1,5]naphthyridin-2-one]: the Ki at mTOR was determined as 0.442 µM; at PI3-Kα, 0.00451 µM. Besides, the half-inhibitory concentration (IC50) in test [1] (setting [2]) turned out to be 0.194 µM.
